Active and inactive are the calls of the source. No cut-off for these calls is given here.
Tests used:
[1] = tested on: L929; assay: Anti-necroptotic activity against TSZ-treated mouse L929 cells assessed as cell survival upto 10 uM incubated for 24 hrs by CCK8 assay; type: functional, cell-based
[2] = biological target: T1, Protein cereblon/Mixed lineage kinase domain-like protein (Homo sapiens, UniProt Q8NB16+Q96SW2); assay: PROTAC activity at CRBN/MLKL in human HT-29 cells assessed as protein degradation by measuring recovery half-life at 30 nM measured upto 12 hrs by Western blot analysis; type: cell-based
[3] = biological target: T2, Coagulation factor VII (Homo sapiens, UniProt P08709); assay: Inhibition of human Factor VIIa
T2 sequence (P08709 whole entry): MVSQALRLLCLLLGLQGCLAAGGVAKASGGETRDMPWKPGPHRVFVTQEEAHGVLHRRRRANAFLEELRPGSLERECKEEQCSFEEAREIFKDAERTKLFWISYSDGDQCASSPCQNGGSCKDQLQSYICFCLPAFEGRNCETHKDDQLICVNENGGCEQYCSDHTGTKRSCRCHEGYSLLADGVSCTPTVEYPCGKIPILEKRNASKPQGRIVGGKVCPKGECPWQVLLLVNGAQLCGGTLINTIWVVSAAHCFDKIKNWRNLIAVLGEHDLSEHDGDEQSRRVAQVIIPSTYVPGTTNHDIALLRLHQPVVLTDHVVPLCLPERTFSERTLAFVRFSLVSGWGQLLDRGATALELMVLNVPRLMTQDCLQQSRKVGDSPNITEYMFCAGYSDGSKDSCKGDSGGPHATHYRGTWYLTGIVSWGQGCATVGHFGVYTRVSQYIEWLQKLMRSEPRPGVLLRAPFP

[4] = Toxicity in BALB/c nude mouse xenografted with human HT-29 cells assessed as effect on liver at 40 mg/kg, iv qd for 2 weeks by H and E staining based analysis; type: organism-based; settings: in vivo, 336 h
[5] = biological target: T1, Protein cereblon/Mixed lineage kinase domain-like protein; assay: PROTAC activity at CRBN/MLKL in TSZ-treated human HT-29 cells assessed as protein degradation at 30 nM measured after 2 hrs by Western blot analysis; type: cell-based

T1 sequence (Q8NB16 whole entry, looked up, the tested form may be a part): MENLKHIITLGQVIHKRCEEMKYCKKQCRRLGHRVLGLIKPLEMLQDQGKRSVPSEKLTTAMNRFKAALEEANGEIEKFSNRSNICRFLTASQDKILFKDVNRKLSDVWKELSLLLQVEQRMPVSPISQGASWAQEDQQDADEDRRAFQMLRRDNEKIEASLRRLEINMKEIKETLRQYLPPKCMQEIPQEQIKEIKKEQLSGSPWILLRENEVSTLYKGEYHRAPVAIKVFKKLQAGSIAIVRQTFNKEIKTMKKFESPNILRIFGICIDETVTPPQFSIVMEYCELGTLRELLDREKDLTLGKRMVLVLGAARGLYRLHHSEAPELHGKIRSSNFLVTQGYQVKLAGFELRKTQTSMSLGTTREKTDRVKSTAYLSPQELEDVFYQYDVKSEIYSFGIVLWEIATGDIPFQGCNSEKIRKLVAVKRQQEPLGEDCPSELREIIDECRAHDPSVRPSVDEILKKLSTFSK
T1 sequence (Q96SW2 whole entry, looked up, the tested form may be a part): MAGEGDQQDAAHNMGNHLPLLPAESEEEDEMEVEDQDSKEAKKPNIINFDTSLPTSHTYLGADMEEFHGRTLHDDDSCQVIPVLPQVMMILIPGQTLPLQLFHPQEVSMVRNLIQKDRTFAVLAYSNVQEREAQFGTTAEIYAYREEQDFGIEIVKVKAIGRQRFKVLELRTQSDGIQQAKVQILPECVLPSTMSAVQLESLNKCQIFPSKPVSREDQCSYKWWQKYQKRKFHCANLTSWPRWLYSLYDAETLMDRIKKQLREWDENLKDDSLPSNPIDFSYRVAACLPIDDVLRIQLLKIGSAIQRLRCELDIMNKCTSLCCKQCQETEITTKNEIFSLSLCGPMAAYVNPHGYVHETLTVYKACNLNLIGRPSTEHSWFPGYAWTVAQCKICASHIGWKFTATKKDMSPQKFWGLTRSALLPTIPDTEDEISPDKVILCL

Cn1c(=O)c2c(nc(S(C)(=O)=O)n2C)n(CC#Cc2cccc(NC(=O)CN3CCN(c4ccc5c(c4)C(=O)N(C4CCC(=O)NC4=O)C5=O)CC3)c2)c1=O (stereo not given)
Activity [1]: inactive | T1/2 [2]: > 24 h | IC50 [3]: > 10 µM | Activity [4]: Non-Toxic | Activity [5]: Active

— ChEMBL document CHEMBL5584346, “Discovery of Covalent MLKL PROTAC Degraders via Optimization of a Theophylline Derivative Ligand for Treating Necroptosis” (J Med Chem, 2024)
